Here are results for twelve compounds from ChEMBL document CHEMBL4725440, “Peptoid NPhe in AGRP-Based c[Pro-Arg-Phe-Phe-Xxx-Ala-Phe-DPro] Scaffolds Maintain Mouse MC4R Antagonist Potency” (ACS Med Chem Lett, 2020).

Holding throughout (type): functional
In assay [1] the target is Melanocyte-stimulating hormone receptor (Mus musculus, UniProt Q01727). In words: Agonist activity at mouse MC1R by alphascreen cAMP assay.
For assay [2], the target named is T1, Melanocortin receptor 3 (Mus musculus, UniProt P33033). In words: Agonist activity at mouse MC3R by alphascreen cAMP assay.
The target in assay [3] is T1, Melanocortin receptor 3. In words: Antagonist activity at mouse MC3R assessed as antagonist potency by alphascreen cAMP assay. The settings on record: read-out: pA2 (converted).
The target in assay [4] is T2, Melanocortin receptor 4 (Mus musculus, UniProt P56450). In words: Agonist activity at mouse MC4R by alphascreen cAMP assay.
Assay [5] concerns the target T2, Melanocortin receptor 4. In words: Antagonist activity at mouse MC4R assessed as antagonist potency by alphascreen cAMP assay. The settings on record: read-out: pA2 (converted).
Assay [6] deals with Melanocortin receptor 5 (Mus musculus) (UniProt P41149). In words: Agonist activity at mouse MC5R at 100 uM by alphascreen cAMP assay relative to control.
The target in assay [7] is Melanocortin receptor 3 (Mus musculus) (UniProt P33033). In words: Agonist activity at mouse MC3R at 100 uM by alphascreen cAMP assay relative to control.
The target of assay [8] is Melanocyte-stimulating hormone receptor (Mus musculus) (UniProt Q01727). In words: Agonist activity at mouse MC1R at 100 uM by alphascreen cAMP assay relative to NDP-MSH. The settings on record: filed as partial agonist.
Another assay concerns the target Melanocortin receptor 5 (Mus musculus, UniProt P41149). In words: Agonist activity at mouse MC5R by alphascreen cAMP assay.

Where a SMILES comes first, the peptide text is derived from it. Where only a bound is given, the exact number is not on record here.

T2 sequence (P56450 whole entry): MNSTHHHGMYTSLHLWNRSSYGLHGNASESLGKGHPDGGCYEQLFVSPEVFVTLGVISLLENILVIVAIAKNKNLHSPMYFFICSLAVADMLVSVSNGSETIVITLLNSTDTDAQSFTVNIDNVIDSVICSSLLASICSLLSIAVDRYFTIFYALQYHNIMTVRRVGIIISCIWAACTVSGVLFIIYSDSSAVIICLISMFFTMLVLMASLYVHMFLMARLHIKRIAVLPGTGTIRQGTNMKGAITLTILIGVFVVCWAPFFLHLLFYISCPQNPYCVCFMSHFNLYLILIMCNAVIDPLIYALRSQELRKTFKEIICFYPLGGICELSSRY
T1 sequence (P33033 whole entry): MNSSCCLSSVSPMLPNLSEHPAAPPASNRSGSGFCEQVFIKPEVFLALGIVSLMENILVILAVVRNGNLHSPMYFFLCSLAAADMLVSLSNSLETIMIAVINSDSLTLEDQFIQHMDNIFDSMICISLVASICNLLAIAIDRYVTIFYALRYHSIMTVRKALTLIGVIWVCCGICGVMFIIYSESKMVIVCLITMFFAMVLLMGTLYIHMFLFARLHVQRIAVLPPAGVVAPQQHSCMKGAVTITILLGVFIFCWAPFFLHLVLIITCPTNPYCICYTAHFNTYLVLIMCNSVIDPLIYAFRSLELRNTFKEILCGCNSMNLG
Sequence of Melanocyte-stimulating hormone receptor (Q01727 whole entry): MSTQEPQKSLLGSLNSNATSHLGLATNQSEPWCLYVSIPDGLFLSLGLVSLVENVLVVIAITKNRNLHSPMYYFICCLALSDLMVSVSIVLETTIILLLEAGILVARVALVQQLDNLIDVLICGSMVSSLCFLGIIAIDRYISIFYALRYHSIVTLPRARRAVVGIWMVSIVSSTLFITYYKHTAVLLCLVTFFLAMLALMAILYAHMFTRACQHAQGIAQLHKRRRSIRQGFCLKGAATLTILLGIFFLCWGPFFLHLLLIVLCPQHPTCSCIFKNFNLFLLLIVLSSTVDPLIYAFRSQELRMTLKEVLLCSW
Sequence of Melanocyte-stimulating hormone receptor (Mus musculus) (Q01727 whole entry, looked up): as the sequence (Q01727 whole entry) above
Sequence of Melanocortin receptor 5 (P41149 whole entry): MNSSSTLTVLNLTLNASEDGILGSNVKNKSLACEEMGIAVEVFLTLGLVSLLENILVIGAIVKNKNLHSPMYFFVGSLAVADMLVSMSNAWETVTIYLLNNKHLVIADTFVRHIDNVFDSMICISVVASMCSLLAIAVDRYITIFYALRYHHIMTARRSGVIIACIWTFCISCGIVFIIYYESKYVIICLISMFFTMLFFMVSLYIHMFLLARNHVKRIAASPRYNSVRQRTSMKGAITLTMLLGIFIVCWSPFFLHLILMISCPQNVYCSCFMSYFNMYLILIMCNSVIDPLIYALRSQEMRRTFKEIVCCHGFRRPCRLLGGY
Sequence of Melanocortin receptor 5 (Mus musculus) (P41149 whole entry): as above
Sequence of Melanocortin receptor 3 (Mus musculus) (P33033 whole entry): as the sequence (P33033 whole entry) above

Take `C[C@@H]1NC(=O)[C@H](CN)NC(=O)[C@H](Cc2ccccc2)NC(=O)[C@H](Cc2ccccc2)NC(=O)[C@H](CCCNC(=N)N)NC(=O)[C@@H]2CCCN2C(=O)[C@H]2CCCN2C(=O)CN(Cc2ccccc2)C1=O`: the EC50 (in [1]; on Melanocortin receptor 3 [2]; on Melanocortin receptor 4 [4]) was above 100 µM in each case. Moreover, the Kb on Melanocortin receptor 3 [3] is 3.16 µM; on Melanocortin receptor 4 [5] it was 0.251 µM. Moreover, in [6] (filed as inverse agonist), the Activity was found to be 10%.
As for `C[C@@H]1NC(=O)[C@H](CN)NC(=O)[C@H](Cc2ccccc2)NC(=O)[C@H](Cc2ccccc2)NC(=O)[C@H](CCCNC(=N)N)NC(=O)[C@@H]2CCCN2C(=O)[C@H]2CCCN2C(=O)[C@H](Cc2ccccc2)NC1=O`, the Activity in [7] was 20%; in [6] (filed as inverse agonist), 10%.
With `C[C@@H]1NC(=O)[C@H](CN)NC(=O)CN(Cc2ccccc2)C(=O)[C@H](Cc2ccccc2)NC(=O)[C@H](CCCNC(=N)N)NC(=O)[C@@H]2CCCN2C(=O)[C@H]2CCCN2C(=O)[C@H](Cc2ccccc2)NC1=O`, the Activity in assay [8] is 60%; in [6] (filed as inverse agonist), 10%. Further, the EC50 on Melanocortin receptor 3 [2] and at Melanocortin receptor 4 [4] was above 100 µM each time.
For the compound `CN1CC(=O)N[C@@H](Cc2ccccc2)C(=O)N2CCC[C@@H]2C(=O)N2CCC[C@H]2C(=O)N[C@@H](CCCNC(=N)N)C(=O)N[C@@H](Cc2ccccc2)C(=O)N[C@@H](Cc2ccccc2)C(=O)N[C@@H](CN)C1=O`, the EC50 (in assay [1]; at Melanocortin receptor 3 [2]; at Melanocortin receptor 4 [4]; at Melanocortin receptor 5) was above 100 µM each time. The Kb was 2.51 µM at Melanocortin receptor 3 [3] and 0.794 µM on Melanocortin receptor 4 [5].
For `C[C@@H]1NC(=O)[C@H](CC(N)=O)NC(=O)CN(Cc2ccccc2)C(=O)[C@H](Cc2ccccc2)NC(=O)[C@H](CCCNC(=N)N)NC(=O)[C@@H]2CCCN2C(=O)[C@H]2CCCN2C(=O)[C@H](Cc2ccccc2)NC1=O`, the Activity in [8] amounted to 70%; in assay [6] (filed as inverse agonist), 10%. The EC50 on Melanocortin receptor 3 [2] and at Melanocortin receptor 4 [4] was above 100 µM throughout.
On to `C[C@@H]1NC(=O)[C@H](CC(N)=O)NC(=O)[C@H](Cc2ccccc2)NC(=O)[C@H](Cc2ccccc2)NC(=O)[C@H](CCCNC(=N)N)NC(=O)[C@@H]2CCCN2C(=O)[C@H]2CCCN2C(=O)CN(Cc2ccccc2)C1=O`, for which the Activity amounted to 85% in assay [8] and 60% in [7] (filed as agonist). In addition, the Kb on Melanocortin receptor 3 [3] and at Melanocortin receptor 4 [5] was above 3.16 µM throughout. In addition, the EC50 on Melanocortin receptor 4 [4] and on Melanocortin receptor 5 was above 100 µM throughout.
`C[C@@H]1NC(=O)[C@H](CN)NC(=O)[C@H](Cc2ccccc2)NC(=O)CN(Cc2ccccc2)C(=O)[C@H](CCCNC(=N)N)NC(=O)[C@@H]2CCCN2C(=O)[C@H]2CCCN2C(=O)[C@H](Cc2ccccc2)NC1=O`: the Activity in assay [8] is 80%; in [6] (filed as partial agonist) it was 70%. In addition, the EC50 on Melanocortin receptor 3 [2] and on Melanocortin receptor 4 [4] was above 100 µM in each case.
Consider `C[C@@H]1NC(=O)[C@H](CC(N)=O)NC(=O)[C@H](Cc2ccccc2)NC(=O)CN(Cc2ccccc2)C(=O)[C@H](CCCNC(=N)N)NC(=O)[C@@H]2CCCN2C(=O)[C@H]2CCCN2C(=O)[C@H](Cc2ccccc2)NC1=O`, for which the EC50 at Melanocortin receptor 3 [2] and at Melanocortin receptor 4 [4] was above 100 µM throughout. At Melanocortin receptor 4 [5], the Kb is above 3.16 µM. Also, the Activity in [6] (filed as inverse agonist) is 10%.
Turning to `C[C@@H]1NC(=O)CN(CCN)C(=O)[C@H](Cc2ccccc2)NC(=O)[C@H](Cc2ccccc2)NC(=O)[C@H](CCCNC(=N)N)NC(=O)[C@@H]2CCCN2C(=O)[C@H]2CCCN2C(=O)[C@H](Cc2ccccc2)NC1=O`, the Activity came out at 60% in assay [8] and 10% in assay [6] (filed as inverse agonist). Besides, the EC50 on Melanocortin receptor 3 [2] and on Melanocortin receptor 4 [4] was above 100 µM throughout. Also, the Kb was 0.126 µM at Melanocortin receptor 3 [3] and 0.00398 µM on Melanocortin receptor 4 [5].
As for `CN1CC(=O)N[C@@H](Cc2ccccc2)C(=O)N2CCC[C@@H]2C(=O)N2CCC[C@H]2C(=O)N[C@@H](CCCNC(=N)N)C(=O)N[C@@H](Cc2ccccc2)C(=O)N[C@@H](Cc2ccccc2)C(=O)N[C@@H](CC(N)=O)C1=O` (HELM PEPTIDE1{P.R.F.F.N.[Sar].F.[dP]}$PEPTIDE1,PEPTIDE1,1:R1-8:R2$$$V2.0), the EC50 at Melanocortin receptor 3 [2], at Melanocortin receptor 4 [4] and on Melanocortin receptor 5 was above 100 µM throughout. Moreover, the Kb at Melanocortin receptor 3 [3] and at Melanocortin receptor 4 [5] was above 3.16 µM throughout.
In the case of `C[C@@H]1NC(=O)[C@H](CN)NC(=O)[C@H](Cc2ccccc2)NC(=O)[C@H](Cc2ccccc2)NC(=O)CN(CCCNC(=N)N)C(=O)[C@@H]2CCCN2C(=O)[C@H]2CCCN2C(=O)[C@H](Cc2ccccc2)NC1=O` (HELM PEPTIDE1{[N=C(N)NCCCN(CC(=O)[*:2])[*:1]].F.F.[NC[C@H](N[*:1])C(=O)[*:2]].A.F.[dP].P}$PEPTIDE1,PEPTIDE1,1:R1-8:R2$$$V2.0), the EC50 (in assay [1]; on Melanocortin receptor 3 [2]; on Melanocortin receptor 4 [4]; at Melanocortin receptor 5) was above 100 µM in each case. The Kb was 1.26 µM at Melanocortin receptor 3 [3] and above 3.16 µM at Melanocortin receptor 4 [5].
Compound `C[C@@H]1NC(=O)[C@H](CC(N)=O)NC(=O)[C@H](Cc2ccccc2)NC(=O)[C@H](Cc2ccccc2)NC(=O)CN(CCCNC(=N)N)C(=O)[C@@H]2CCCN2C(=O)[C@H]2CCCN2C(=O)[C@H](Cc2ccccc2)NC1=O` (HELM PEPTIDE1{P.[N=C(N)NCCCN(CC(=O)[*:2])[*:1]].F.F.N.A.F.[dP]}$PEPTIDE1,PEPTIDE1,1:R1-8:R2$$$V2.0) yielded an Activity in assay [8] of 50%. The EC50 on Melanocortin receptor 3 [2], at Melanocortin receptor 4 [4] and at Melanocortin receptor 5 was above 100 µM throughout. The Kb at Melanocortin receptor 3 [3] and at Melanocortin receptor 4 [5] was above 3.16 µM in each case.
